From patent US7998952B2, “Thiolactams and uses thereof” (Millennium Pharmaceuticals, Inc., priority 2008, dated 2011)
pIC50: −log10 of the molar value.

molecular target: T1, recombinant human PLK1[2-369]T210D (Homo sapiens, UniProt P53350, T210D); test: PLK1 DELFIA Kinase Assay; format: biochemical; conditions: 50 μM ATP, 2 μM peptide substrate, 0.3 nM enzyme, 90 minutes at room temperature
T1 construct: recombinant human PLK1[2-369]T210D; Smt (SUMO) fusion partner (N, cleaved yes); host or cells: E. coli
Procedure: Recombinant human PLK1 was expressed in E. coli as an N-terminal Smt fusion protein using a proprietary vector (pSGX4) by Structural Genomics (SGX). The fusion partner was removed through cleavage with Ulp1 after an initial purification using a Ni2+ affinity column.
PLK1 DELFIA® Kinase Assay
The enzymatic reaction mixture, with or without PLK inhibitors, was incubated 90 minutes at room temperature before termination with 50 μL of STOP buffer containing 1% BSA, 0.05% Tween20, 100 mM EDTA. 50 μL of the stopped enzyme reaction mixture was transferred to a Neutravidin-coated 384-well plate (Pierce) and incubated at room temperature for 60 minutes. […] The wells were washed and then the bound europium was liberated using 50 μL of Enhancement Solution (Perkin Elmer). Quantification of europium was done using a Pherastar (BMG Labtech)

T1 sequence (P53350 2-369 T210D): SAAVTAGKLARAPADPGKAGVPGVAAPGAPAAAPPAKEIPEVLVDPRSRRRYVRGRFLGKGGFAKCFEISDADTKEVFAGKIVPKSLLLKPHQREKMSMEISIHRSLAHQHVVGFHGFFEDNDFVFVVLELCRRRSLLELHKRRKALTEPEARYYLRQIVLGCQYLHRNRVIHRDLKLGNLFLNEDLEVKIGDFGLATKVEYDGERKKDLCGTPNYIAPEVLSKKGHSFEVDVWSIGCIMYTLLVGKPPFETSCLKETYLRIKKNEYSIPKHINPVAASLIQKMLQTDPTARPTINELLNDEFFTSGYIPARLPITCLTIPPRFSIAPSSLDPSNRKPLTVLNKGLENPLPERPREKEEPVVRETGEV

Row | pIC50 | Structure (SMILES)
1 | > 8.30 | CN(C)CCc1cncc(Nc2ncc3c(n2)-c2ccc(C(F)(F)F)cc2NC(=S)C3)c1 [Compound I-25, 2-({5-[2-(dimethylamino)ethyl]pyridin-3-yl}amino)-9-(trifluoromethyl)-5,7-dihydro-6H-pyrimido[5,4-d][1]benzazepine-6-thione]
2 | > 8.30 | Cc1ncc(CCN2CCN(C)CC2)cc1Nc1ncc2c(n1)-c1ccc(C(F)(F)F)cc1NC(=S)C2 [Compound I-26, 2-({2-methyl-5-[2-(4-methylpiperazin-1-yl)ethyl]pyridin-3-yl}amino)-9-(trifluoromethyl)-5,7-dihydro-6H-pyrimido[5,4-d][1]benzazepine-6-thione]
3 | > 8.30 | CN(C)CCCc1cnc(F)c(Nc2ncc3c(n2)-c2ccc(Cl)cc2NC(=S)C3)c1 [Compound I-27, 9-chloro-2-({5-[3-(dimethylamino)propyl]-2-fluoropyridin-3-yl}amino)-5,7-dihydro-6H-pyrimido[5,4-d][1]benzazepine-6-thione]
4 | > 8.30 | CN1CCN(c2ccc(Nc3ncc4c(n3)-c3ccc(Cl)cc3NC(=S)C4)cn2)CC1 [Compound I-28, 9-chloro-2-{[6-(4-methylpiperazin-1-yl)pyridin-3-yl]amino}-5,7-dihydro-6H-pyrimido[5,4-d][1]benzazepine-6-thione]
5 | > 8.30 | Cc1nc(N2CCC(N(C)C)CC2)ccc1Nc1ncc2c(n1)-c1ccc(C(F)(F)F)cc1NC(=S)C2 [Compound I-29, 2-({6-[4-(dimethylamino)piperidin-1-yl]-2-methylpyridin-3-yl}amino)-9-(trifluoromethyl)-5,7-dihydro-6H-pyrimido[5,4-d][1]benzazepine-6-thione]
6 | < 7.60 | Cc1ncc(CCNC2CCCC2)cc1Nc1ncc2c(n1)-c1ccc(Cl)cc1NC(=S)C2 [Compound I-30, 9-chloro-2-({5-[2-(cyclopentylamino)ethyl]-2-methylpyridin-3-yl}amino)-5,7-dihydro-6H-pyrimido[5,4-d][1]benzazepine-6-thione]
7 | > 8.30 | Cc1ncc(CCN2C[C@@H](C)O[C@@H](C)C2)cc1Nc1ncc2c(n1)-c1ccc(Cl)cc1NC(=S)C2 [Compound I-31, 9-chloro-2-[(5-{2-[(2R,6S)-2,6-dimethylmorpholin-4-yl]ethyl}-2-methylpyridin-3-yl)amino]-5,7-dihydro-6H-pyrimido[5,4-d][1]benzazepine-6-thione]
8 | > 8.30 | CN(C)CCCc1cncc(Nc2ncc3c(n2)-c2ccc(C(F)(F)F)cc2NC(=S)C3)c1 [Compound I-32, 2-({5-[3-(dimethylamino)propyl]pyridin-3-yl}amino)-9-(trifluoromethyl)-5,7-dihydro-6H-pyrimido[5,4-d][1]benzazepine-6-thione]
9 | 7.60 to 8.30 | CN(C)CCCc1cc2c(cc1Cl)NC(=S)Cc1cnc(Nc3cccnc3)nc1-2 [Compound I-33, 9-chloro-10-[3-(dimethylamino)propyl]-2-(pyridin-3-ylamino)-5,7-dihydro-6H-pyrimido[5,4-d][1]benzazepine-6-thione]
10 | > 8.30 | Cc1ncc(CCN2CCCC(N(C)C)C2)cc1Nc1ncc2c(n1)-c1ccc(Cl)cc1NC(=S)C2 (stereo not drawn) [Compound I-34, 9-chloro-2-[(5-{2-[3-(dimethylamino)piperidin-1-yl]ethyl}-2-methylpyridin-3-yl)amino]-5,7-dihydro-6H-pyrimido[5,4-d][1]benzazepine-6-thione]
11 | 7.60 to 8.30 | Cc1nc(N(C)CCN(C)C)ccc1Nc1ncc2c(n1)-c1ccc(C(F)(F)F)cc1NC(=S)C2 [Compound I-35, 2-({6-[[2-(dimethylamino)ethyl](methyl)amino]-2-methylpyridin-3-yl}amino)-9-(trifluoromethyl)-5,7-dihydro-6H-pyrimido[5,4-d][1]benzazepine-6-thione]
12 | 7.60 to 8.30 | CN(C)CCCc1cnc(C(F)(F)F)c(Nc2ncc3c(n2)-c2ccc(C(F)(F)F)cc2NC(=S)C3)c1 [Compound I-36, 2-{[5-[3-(dimethylamino)propyl]-2-(trifluoromethyl)pyridin-3-yl]amino}-9-(trifluoromethyl)-5,7-dihydro-6H-pyrimido[5,4-d][1]benzazepine-6-thione]
